Entries after “also recorded” stand apart in the source; their conditions may differ. Like-named read-outs stand apart in the source and are kept apart here.
System: CYP704A2
Assay: Enzyme activity and substrate specificity of recombinant CYP704A2 (microsomes from yeast, radiolabeled substrates, TLC and GC/MS of metabolites)
Format: biochemical, Arabidopsis thaliana
Details: for Product (nmole/min/nmole P450) / % of metabolisation: microsomes from yeast expressing CYP704A2, 100 μM radiolabeled substrate, 78 pmoles of CYP704A2, TLC; for Product (nmole/min/nmole P450) / substrate of CYP704A2 / relative rate of metabolism (in words) / % of metabolisation: 20 min at 27° C.; for substrate of CYP704A2 / relative rate of metabolism (in words): 100 μM 14C radiolabelled substrate, with NADPH, TLC
Protocol: Heterologous expression of CYP704A2 in Yeast—For functional expression of the full length CYP704A2 clone, we used a yeast expression system specifically developed for the expression of P450 enzymes and consisting of plasmid pYeDP60 and Saccharomyces cerevisiae WAT11 strain (Pompon D. et al (1996) Methods Enzymol 272, 51-64). Yeast cultures were grown and CYP704A2 expression was induced as described in Pompon et al. (1996) see above from one isolated transformed colony. After growth, cells were harvested by centrifugation and manually broken with glass beads (0.45 mm diameter) in 50 mM Tris-HCl buffer (pH 7.5) containing 1 mM EDTA and 600 mM sorbitol. The homogenate was centrifuged for 10 min at 10,000 g. The resulting supernatant was centrifuged for 1 h at 100,000 g. The pellet consisting of microsomal membranes was resuspended in 50 mM Tris-HCl (pH 7.4), 1 mM EDTA and 30% (v/v) glycerol with a Potter-Elvehjem homogenizer and stored at −30° C. The volume of resuspension buffer is proportional to the weight of yeast pellet: microsomes extracted from 6 g of yeast are resuspended in 3 ml of buffer. All procedures for microsomal preparation were carried out at 0-4° C. The cytochrome P450 content was measured by the method of Omura and Sato (1964) J Biol Chem 239, 2370-2378.
Enzyme activities—radiolabeled substrates were dissolved in ethanol that was evaporated before the addition of microsomes into the glass tube. Resolubilization of the substrates was confirmed by measuring the radioactivity of the incubation media. Enzymatic activities of CYP704A2 from transformed yeast or Arabidopsis microsomes were determined by following the formation rate of metabolites. The standard assay (0.1 ml) contained 20 mM sodium phosphate (pH 7.4), 1 mM NADPH, and radiolabeled substrate (100 μM). The reaction was initiated by the addition of NADPH and was stopped by the addition of 20 μl acetonitrile (containing 0.2% acetic acid). The reaction products were resolved by TLC or HPLC as described below.
Thin layer chromatographic (TLC) methods—Incubation media were directly spotted on TLC plates. For separation of metabolites from residual substrate, TLC were developed with a mixture of diethyl ether/light petroleum (boiling point, 40-60° C.)/formic acid (50:50:1, v/v/v). The plates were scanned with a radioactivity detector (Raytest Rita Star). The area corresponding to the metabolites were scraped into counting vials and quantified by liquid scintillation, or they were eluted from the silica with 10 ml of diethyl ether, which was removed by evaporation. They were then subjected to GC/MS analysis.
GC/MS analysis—GC-MS analysis were carried out on a gas chromatograph (Agilent 6890 Series) equipped with a 30-m capillary column with an internal diameter of 0.25 mm and a film thickness of 0.25 μm (HP-5MS). The gas chromatograph was combined with a quadrupole mass selective detector (Agilent 5973N). Mass spectra were recorded at 70 eV and analysed as in Eglinton et al. (1968) Org. Mass. Spectrom 1, 593-611.
The enzyme activity and substrate specificity of CYP704A2 was subsequently evaluated. Thereto 20 μl of microsomal membranes overexpressing CYP704A2 (i.e. […]) were incubated 20 min at 27° C. with 100 μM of different ^14C radiolabelled fatty acids, alkanols or alkanes (purchased with American Radiolabeled Chemicals) together with 0.1 mM of NADPH, 0.4 Units of glucose-6-phosphate dehydrogenase, 3 mM glucose-6-phosphate in buffer NaPi 20 mM, pH 7.4 in a final reaction volume of 100 μl. The reaction was quenched by the addition of 20 μl of 20% of acetonitrile in water, and the incubation mix was spotted on silicagel 60F254 plates (Merck) for analysis. Plates were developed with a mix of ether/petroleum ether/formic acid 50/50/1 until the migration front reached the top of the plate. Dried plates were then scanned with a Raytest radioisotope thin-layer analyzer and radioactivity in the spots of interest was quantified in order to evaluate the substrate conversion. […]

Structure (SMILES) | Product (nmole/min/nmole P450) | substrate of CYP704A2 / relative rate of metabolism (in words) | further results
CCCCCCCCCCCCCCCCO [C16-OH:0] | 6.5 nmole/min/nmole P450 |  | 
CCCCCCCCCCCCCC(=O)O [myristic acid] |  | not substrates | 
CCCCCC/C=C\CCCCCCCC(=O)O [palmitoleic acid] |  | not substrates | 
CCCCCCCCCCCC(=O)O [C12:0, lauric acid] | 7.3 nmole/min/nmole P450 |  | 
CCCCCCCCCCCCCCCC(=O)O [C16:0, palmitic acid] | 18.3 nmole/min/nmole P450 | preferentially metabolized | substrate of CYP704A2 / relative rate of metabolism (in words) (listed as palmitic acid): best substrate; rate of palmitic acid metabolism (concentration of palmitic acid of 100 μM): 18.3 nmol/min/nmole of P450; % of metabolisation: 14.3%
CCCCCCCCCCCCCCCC [C16 alkane, hexadecane] | 22.4 nmole/min/nmole P450 |  | products formed on incubation with CYP704A2 (TLC, GC/MS) (incubation with CYP704A2, products purified on TLC and identified by GC/MS): formation of three more polar compounds; % of metabolisation: 7.1%
CCCCCCCCCCCCCCCCCC(=O)O [stearic acid] |  | not substrates; also recorded: not metabolized | 
CCCCCCCCCCCCO [C12-OH:0, dodecanol] | 12.6 nmole/min/nmole P450 |  | products formed on incubation with CYP704A2 (TLC, GC/MS): formation of two more polar compounds
